In patent US10647713B2 (Nimbus Lakshmi, Inc., priority 2016, dated 2020):

biological target: human TYK2 (JH2domain-pseudokinase) (Homo sapiens (Human), UniProt P29597); assay: TYK2 JH2 Domain Binding Assay (KINOMEscan, DiscoveRx); conditions: 11-point dilution, duplicate
Outline: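 TYK2 JH2 (G556–D888)–NFkB DBD fusion, DNA-tagged, from HEK293 extracts (<0.1 nM) competed against immobilised biotinylated ligand for 1 h at room temperature, 0.9% DMSO. Bead-retained kinase quantified by qPCR; Kd from 11-point 3-fold series (top 30,000 nM, duplicate), Hill fit with slope −1.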

human TYK2 (JH2domain-pseudokinase), sequence (P29597 556-888): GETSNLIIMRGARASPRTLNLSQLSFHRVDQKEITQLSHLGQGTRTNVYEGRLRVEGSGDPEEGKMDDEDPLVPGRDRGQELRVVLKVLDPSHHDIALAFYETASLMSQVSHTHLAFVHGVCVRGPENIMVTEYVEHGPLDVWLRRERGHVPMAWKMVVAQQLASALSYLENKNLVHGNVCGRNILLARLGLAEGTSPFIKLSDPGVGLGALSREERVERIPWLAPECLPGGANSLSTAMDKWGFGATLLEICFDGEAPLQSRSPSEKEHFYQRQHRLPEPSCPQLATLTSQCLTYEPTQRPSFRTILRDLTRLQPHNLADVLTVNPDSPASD

Kd | SMILES
> 10 nM | COc1c(Nc2cc(NC(=O)C3CC3)nc3[nH]c(C(F)(F)F)nc23)cccc1-c1nnn(C)n1 [I-172, N-(7-((2-methoxy-3-(2-methyl-2H-tetrazol-5-yl)phenyl)amino)-2-(trifluoromethyl)-3H-imidazo[4,5-b]pyridin-5-yl)cyclopropanecarboxamide]
< 0.1 nM | Cc1cc(Nc2cc(Nc3ccc(-c4cc(C)n(C)n4)cc3S(C)(=O)=O)c3nc(C)[nH]c3n2)nc(C)n1 [I-509, N7-(4-(1,5-dimethyl-1H-pyrazol-3-yl)-2-(methylsulfonyl)phenyl)-N5-(2,6-dimethylpyrimidin-4-yl)-2-methyl-3H-imidazo[4,5-b]pyridine-5,7-diamine]
1 to 10 nM | COc1cc(-c2cncn2C)ccc1Nc1cc(NC(=O)C2CC2)nc2[nH]c(C)nc12 [I-151, N-(7-((2-methoxy-4-(1-methyl-1H-imidazol-5-yl)phenyl)amino)-2-methyl-3H-imidazo[4,5-b]pyridin-5-yl)cyclopropanecarboxamide]
0.1 to 0.5 nM | CN(c1cc([C@@H]2CCCCO2)ccc1Nc1cc(NC(=O)C2CC2)nc2[nH]c(C(F)F)nc12)S(C)(=O)=O [I-219, (S)—N-(2-(difluoromethyl)-7-((2-(N-methylmethylsulfonamido)-4-(tetrahydro-2H-pyran-2-yl)phenyl)amino)-3H-imidazo[4,5-b]pyridin-5-yl)cyclopropanecarboxamide]
0.1 to 0.5 nM | COc1c(Nc2cc(Nc3cccc(C#N)n3)nc3[nH]c(C(F)F)nc23)cccc1-c1cnn(C)n1 [I-574, 6-((2-(difluoromethyl)-7-((2-methoxy-3-(2-methyl-2H-1,2,3-triazol-4-yl)phenyl)amino)-3H-imidazo[4,5-b]pyridin-5-yl)amino)picolinonitrile]
0.1 to 0.5 nM | Cc1nc2c(Nc3ccc(-c4cn(C)cn4)cc3S(C)(=O)=O)cc(NC(=O)[C@H]3CC3(F)F)nc2[nH]1 [I-227, (R)-2,2-difluoro-N-(2-methyl-7-((4-(1-methyl-1H-imidazol-4-yl)-2-(methylsulfonyl)phenyl)amino)-3H-imidazo[4,5-b]pyridin-5-yl)cyclopropane-1-carboxamide]
0.5 to 1 nM | CN(c1cc(C(F)F)ccc1Nc1cc(Nc2ccn(C)n2)nc2[nH]c(C(F)F)nc12)S(C)(=O)=O [I-202, N-(5-(difluoromethyl)-2-((2-(difluoromethyl)-5-((1-methyl-1H-pyrazol-3-yl)amino)-3H-imidazo[4,5-b]pyridin-7-yl)amino)phenyl)-N-methylmethanesulfonamide]
0.1 to 0.5 nM | CN=S(C)(=O)c1cc(-c2ccn(C)n2)ccc1Nc1cc(NC(=O)C2CC2)nc2[nH]c(C(F)F)nc12 (stereo not drawn) [I-632]
1 to 10 nM | Cc1ncc(Nc2cc(Nc3ccc(C4=NC(C)(C)CS4)cc3S(C)(=O)=O)c3nc(C(F)F)[nH]c3n2)nc1C [I-565, 2-(difluoromethyl)-N7-(4-(4,4-dimethyl-4,5-dihydrothiazol-2-yl)-2-(methylsulfonyl)phenyl)-N5-(5,6-dimethylpyrazin-2-yl)-3H-imidazo[4,5-b]pyridine-5,7-diamine]

SMILES | Kd
Cc1nc2c(Nc3ccccc3[S+](C)[O-])cc(NC(=O)C3CC3)nc2[nH]1 (stereo not drawn) [I-336, N-(2-methyl-7-((2-(methylsulfinyl)phenyl)amino)-3H-imidazo[4,5-b]pyridin-5-yl)cyclopropanecarboxamide] | 1 to 10 nM
COc1c(Cl)cccc1Nc1cc(NC(=O)C2CC2)nc2[nH]c(C)nc12 [I-103, N-(7-((3-chloro-2-methoxyphenyl)amino)-2-methyl-3H-imidazo[4,5-b]pyridin-5-yl)cyclopropanecarboxamide] | > 10 nM
CS(=O)(=O)c1cc([C@H]2CCCO2)ccc1Nc1cc(NC(=O)[C@H]2CC2(F)F)nc2[nH]c(C(F)F)nc12 [I-307, (R)—N-(2-(difluoromethyl)-7-((2-(methylsulfonyl)-4-((R)-tetrahydrofuran-2-yl)phenyl)amino)-3H-imidazo[4,5-b]pyridin-5-yl)-2,2-difluorocyclopropane-1-carboxamide] | 1 to 10 nM
